# Reference: patent US4550186A, “Binuclear copper (II) carboxylates formed from amine-carboxyboranes” (Duke University, priority 1983, dated 1985)
# Read-outs that look alike come from different tables or passages of the source.
# Legend:
# [1] = target: T1, orotidine monophosphate decarboxylase (Mus musculus, UniProt P13439); assay: In vitro orotidine monophosphate decarboxylase activity; assay type: biochemical; details: 0.25 to 1.0 mM
# T1 construct: OMP decarboxylase domain of UMP synthase
# Procedure: (§1) CF1 male mice (~30 g) were implanted with 2×10^6 Ehrlich ascites tumor cells, intraperitoneally on Day 0. Compound I was suspended by homogenation in 0.05% polysorbate.80-water and administered intraperitoneally at 10 and 20 mg/kg for 9 days to determine its effectiveness for inhibition of tumor growth. Mice were sacrificed on Day 10, and the ascites fluid was collected from the peritoneal cavity. The volume and ascrit (packed cell volume) were determined for each animal and the percent inhibition of tumor growth was calculated. For the metabolic studies, mice were treated on Days 8 and 9 with 10 mg/kg of Compound I, intraperitoneally. […]
# (§2) Carbamyl phosphate synthetase activity was determined using the reaction medium of Kalman et al [Am. […] Citrulline formed from ornithine was measured at 490 nm by the method of Archibald [J. Biol. Chem., 156, 121 (1944)]. […] The ^14 CO2 generated in 15 min was trapped in 1M KOH and counted. Thymidylate synthetase activity was determined using a post-mitochondrial supernatant (9000 g×10 min) and 5 μCi of 5-^3 H-deoxyuridine monophosphate (14 Ci/mmol) according to the method of Kampf et al [ J. Med. Chem., 19, 903 (1976)]. ^14 C-Formate incorporation into purines was determined by the method of Spassova et al [Biochem. Pharmacol., 25, 923 (1976)] using 0.5 μCi of ^14 C-formic acid (52.0 mCi/mmol). […] The Rf value for xanthine monophosphate was scraped and counted. […]
# [2] = system: inosinic acid dehydrogenase; assay: In vitro inosinic acid dehydrogenase activity; assay type: biochemical, mouse; details: 0.25 to 1.0 mM
# Procedure: as §1, §2
# [3] = target: T1, orotidine monophosphate decarboxylase; assay: In vivo orotidine monophosphate decarboxylase activity
# Procedure: as §1, §2
# Holtzman male rats = assay: Antihyperlipidemic screen in normal rats; assay type: in vivo, rat
# Procedure: Compounds to be tested were suspended in 1% carboxymethylcellulose-water and administered to CF1 male mice (~25 g) intraperitoneally for 16 days or Holtzman male rats (~350 g) orally by an intubation needle for 16 days. On days 9 or 16, blood was obtained by tail vein bleeding and the serum separated by centrifugation for 3 min. The serum cholesterol levels were determined by a modification of the Liebermann-Burchard reaction as described in Ness et al, Clin. Chim. Acta, 10, 229 (1964). Serum was also collected on day 16 and the triglyceride content was determined by a commercial kit, The Fisher Hycel Triglyceride Test Kit.
# Data are expressed in the Table 2-7 as percent of control ± the standard deviation. The probable significant level (P) between each test group and the control group was determined by the Student's "t" test.
# [4] = target: T2, ribosomal ribonucleic acid polymerase (Mus musculus, UniProt O35134+P70700); assay: In vivo ribosomal ribonucleic acid polymerase activity
# T2 construct: enzymes isolated from nuclei; endogenous in cells; host or cells: Ehrlich ascites tumor cell nuclei, ammonium sulfate fraction
# Procedure: CF1 male mice (~30 g) were implanted with 2×10^6 Ehrlich ascites tumor cells, intraperitoneally on Day 0. Compound I was suspended by homogenation in 0.05% polysorbate.80-water and administered intraperitoneally at 10 and 20 mg/kg for 9 days to determine its effectiveness for inhibition of tumor growth. Mice were sacrificed on Day 10, and the ascites fluid was collected from the peritoneal cavity. The volume and ascrit (packed cell volume) were determined for each animal and the percent inhibition of tumor growth was calculated. For the metabolic studies, mice were treated on Days 8 and 9 with 10 mg/kg of Compound I, intraperitoneally. The animal was sacrificed on Day 10 and the ascites fluid harvested. The in vitro metabolic studies were performed at […] final concentration of Compound I.
# In vitro and in vivo nuclear deoxyribonucleic acid polymerase activity was determined on isolated Ehrlich ascites cell nuclei. The incubation was that described by Sawada et al [Can. Res., 34, 3341 (1974)] except that [methyl-^3 H] deoxythymidine triphosphate (82.4 Ci/mmol) was used. The acid insoluble nucleic acid was collected on GF/F filters and counted. Nuclear ribonucleic acid polymerase activities were determined on enzymes isolated from nuclei. […] The acid insoluble ribonucleic acid was collected on nitrocellulose filters and counted.
# [5] = target: T3, carbamyl phosphate synthetase (Mus musculus, UniProt B2RQC6); assay: In vivo carbamyl phosphate synthetase activity
# T3 construct: CPSase II domain of CAD; ornithine transcarbamylase used as coupling enzyme
# Procedure: as §1, §2
# [6] = 10 mg/kg/day I.P. on Days 8 and 9
# [7] = rats orally, 10.0 mg/kg, Day 16
# T1 sequence (P13439 whole entry, the tested form may be a part): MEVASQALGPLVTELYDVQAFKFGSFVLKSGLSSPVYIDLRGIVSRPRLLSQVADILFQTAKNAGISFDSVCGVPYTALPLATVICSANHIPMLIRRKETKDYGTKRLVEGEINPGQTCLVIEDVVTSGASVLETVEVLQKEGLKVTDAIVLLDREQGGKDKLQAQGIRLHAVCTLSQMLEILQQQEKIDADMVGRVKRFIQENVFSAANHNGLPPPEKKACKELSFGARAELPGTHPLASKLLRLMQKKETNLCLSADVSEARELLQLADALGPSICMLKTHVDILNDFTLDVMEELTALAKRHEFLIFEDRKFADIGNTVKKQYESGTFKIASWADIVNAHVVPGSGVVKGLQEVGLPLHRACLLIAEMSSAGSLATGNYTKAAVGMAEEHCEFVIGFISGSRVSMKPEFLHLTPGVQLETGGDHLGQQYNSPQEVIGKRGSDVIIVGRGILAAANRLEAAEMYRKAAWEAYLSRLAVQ
# T3 sequence (B2RQC6 2-2225): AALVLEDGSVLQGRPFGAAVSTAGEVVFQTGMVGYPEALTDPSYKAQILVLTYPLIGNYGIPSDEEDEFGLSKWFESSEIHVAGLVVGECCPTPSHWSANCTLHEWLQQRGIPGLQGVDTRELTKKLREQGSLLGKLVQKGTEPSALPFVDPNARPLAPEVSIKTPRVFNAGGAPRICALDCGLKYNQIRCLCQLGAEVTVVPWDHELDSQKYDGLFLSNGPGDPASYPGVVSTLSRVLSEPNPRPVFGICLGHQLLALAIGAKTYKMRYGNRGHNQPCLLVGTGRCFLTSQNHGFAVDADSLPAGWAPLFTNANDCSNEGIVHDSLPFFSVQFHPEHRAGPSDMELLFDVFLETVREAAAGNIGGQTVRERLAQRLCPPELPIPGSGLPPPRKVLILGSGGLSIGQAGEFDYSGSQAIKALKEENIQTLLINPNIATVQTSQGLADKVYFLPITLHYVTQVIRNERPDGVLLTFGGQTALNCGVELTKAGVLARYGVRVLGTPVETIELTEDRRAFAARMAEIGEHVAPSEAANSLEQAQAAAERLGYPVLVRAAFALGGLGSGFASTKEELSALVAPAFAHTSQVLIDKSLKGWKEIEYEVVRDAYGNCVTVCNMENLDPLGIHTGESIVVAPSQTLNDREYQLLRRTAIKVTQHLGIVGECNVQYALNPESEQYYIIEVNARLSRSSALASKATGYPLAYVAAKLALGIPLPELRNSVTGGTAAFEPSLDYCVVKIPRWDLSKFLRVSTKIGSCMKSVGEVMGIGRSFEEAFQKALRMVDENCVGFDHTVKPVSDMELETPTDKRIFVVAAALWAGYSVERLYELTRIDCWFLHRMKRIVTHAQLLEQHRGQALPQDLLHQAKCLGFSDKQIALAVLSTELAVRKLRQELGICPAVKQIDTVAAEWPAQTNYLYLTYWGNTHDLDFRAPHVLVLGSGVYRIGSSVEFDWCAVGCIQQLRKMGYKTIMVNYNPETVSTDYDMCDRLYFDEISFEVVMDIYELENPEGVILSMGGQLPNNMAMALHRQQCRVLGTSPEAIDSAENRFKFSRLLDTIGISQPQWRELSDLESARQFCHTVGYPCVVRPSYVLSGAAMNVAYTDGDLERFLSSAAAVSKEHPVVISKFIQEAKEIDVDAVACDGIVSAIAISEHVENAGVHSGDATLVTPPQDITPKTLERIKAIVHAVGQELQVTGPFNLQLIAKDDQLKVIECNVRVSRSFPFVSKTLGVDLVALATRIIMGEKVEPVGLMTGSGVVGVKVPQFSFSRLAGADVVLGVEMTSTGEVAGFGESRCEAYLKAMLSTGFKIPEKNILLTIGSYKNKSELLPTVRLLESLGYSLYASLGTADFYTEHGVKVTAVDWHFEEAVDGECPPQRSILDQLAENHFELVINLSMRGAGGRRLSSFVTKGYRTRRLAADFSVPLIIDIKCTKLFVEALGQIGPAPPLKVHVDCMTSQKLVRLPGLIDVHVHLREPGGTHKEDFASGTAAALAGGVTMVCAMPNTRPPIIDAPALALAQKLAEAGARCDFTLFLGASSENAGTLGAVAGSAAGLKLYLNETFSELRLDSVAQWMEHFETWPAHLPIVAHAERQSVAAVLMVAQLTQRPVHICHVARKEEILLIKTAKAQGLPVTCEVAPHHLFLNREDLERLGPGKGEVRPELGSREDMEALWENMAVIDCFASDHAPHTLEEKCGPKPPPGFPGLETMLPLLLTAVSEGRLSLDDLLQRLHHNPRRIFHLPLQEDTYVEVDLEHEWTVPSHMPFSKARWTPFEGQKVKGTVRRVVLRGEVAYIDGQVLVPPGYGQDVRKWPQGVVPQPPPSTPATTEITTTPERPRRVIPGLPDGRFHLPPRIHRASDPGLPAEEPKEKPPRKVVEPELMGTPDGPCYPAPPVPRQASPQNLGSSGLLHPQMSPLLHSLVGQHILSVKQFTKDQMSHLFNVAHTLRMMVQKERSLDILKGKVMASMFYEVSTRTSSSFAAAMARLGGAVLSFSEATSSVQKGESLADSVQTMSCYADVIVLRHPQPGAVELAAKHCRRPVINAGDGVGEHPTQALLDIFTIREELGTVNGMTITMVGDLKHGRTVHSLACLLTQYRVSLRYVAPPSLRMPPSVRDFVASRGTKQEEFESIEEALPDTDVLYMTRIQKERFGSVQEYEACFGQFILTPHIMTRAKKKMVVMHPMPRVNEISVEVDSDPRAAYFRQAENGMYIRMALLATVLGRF
substance,measurement,setting,value
{Cu[(CH3)3 N.BH2 CO2 ]2.(CH3)3 N.BH2 COOH} [Compound I],orotidine monophosphate decarboxylase inhibition,[1],not inhibited
same,inosinic acid dehydrogenase inhibition,[2],not inhibited
same,Orotidine monophosphate decarboxylase activity,[3],not affected
same,Orotidine monophosphate decarboxylase activity,[3]; [6],106 ± 9 % Control
same,Serum Cholesterol,"Holtzman male rats; rats orally, 10.0 mg/kg, Day 9",63 ± 5 % Control
same,Serum Cholesterol,Holtzman male rats; [7],65 ± 5 % Control
same,Serum Triglyceride,Holtzman male rats; [7],36 ± 4 % Control
same,Serum triglyceride levels reduced,"Holtzman male rats; rats, 10 mg/kg/day",64%
same,reduction in serum cholesterol levels,"Holtzman male rats; rats, 10 mg/kg/day",37%
same,ribosomal ribonucleic acid polymerase activity,[4],not affected
same,Ribosmoal ribonucleic acid polymerase activity,[4]; [6],96 ± 11 % Control
same,Carbamyl phosphate synthetase activity reduced,[5],23%
same,Carbamyl phosphate synthetase activity,[5]; [6],77 ± 8 % Control
